We go through 6 compounds from ChEMBL document CHEMBL1795339, “Novel purine-based fluoroaryl-1,2,3-triazoles as neuroprotecting agents: synthesis, neuronal cell culture investigations, and CDK5 docking studies” (Bioorg Med Chem Lett, 2011).

The subject of this assay is Hippocampal neuron. As to the kind of experiment: Neuroprotective activity against Amyloid beta-induced mouse hippocampal neuronal death at 1 uM pretreated for 1 hr before Amyloid beta treatment measured after 48 hrs using propidium iodide staining by fluorescence […] microscopy. It counts as functional, tissue-based. Particulars: Hippocampus.

Structures are written as SMILES. Calls of active or inactive are those of the source. The calls are words filed in the database; no cut-off is given here.

As to `Fc1ccccc1Cn1cc(Cn2cnc3c(NCc4ccccc4)nc(Cl)nc32)nn1`, the outcome was Active.

As to `Fc1cccc(F)c1Cn1cc(Cn2cnc3c(NCc4ccccc4)nc(Cl)nc32)nn1`, the outcome was Active.

Consider `CC[C@H](CO)Nc1nc(NCc2ccccc2)c2ncn(C(C)C)c2n1`, for which the outcome was Active.

As for `Clc1nc(NCc2ccccc2)c2ncn(Cc3cn(Cc4ccccc4)nn3)c2n1`, the result was Active.

As for `Fc1c(F)c(F)c(Cn2cc(Cn3cnc4c(NCc5ccccc5)nc(Cl)nc43)nn2)c(F)c1F`, the result was inactive.

`CN1CC[C@H](c2c(O)cc(O)c3c(=O)cc(-c4ccccc4Cl)oc23)[C@H](O)C1`: the outcome was Active.
